Experimental data published in ChEMBL document CHEMBL1132526, “Spiro-imidazo[1,2-a]indeno[1,2-e]pyrazine-4-one derivatives are mixed AMPA and NMDA glycine-site antagonists active in vivo” (Bioorg Med Chem Lett, 1999).

Legend:
[1] = molecular target: Glutamate NMDA receptor; experiment: In vitro binding affinity towards glycine modulatory site on the NMDA receptors using [3H]DCKA as radioligand in rat cortical membrane preparations; assay type: cell membranes
[2] = molecular target: T1, Glutamate receptor ionotropic, AMPA (Rattus norvegicus, UniProt P19490+P19491+P19492+P19493); experiment: In vitro binding affinity towards ionotropic glutamate receptor AMPA using [3H]AMPA as radioligand in rat cortical membrane preparations; assay type: cell membranes
[3] = tested on: Mus musculus; experiment: In vivo activity determined by Maximum electroshock induced seizures (MES) assay in mice after ip administration; assay type: functional
[4] = molecular target: T1, Glutamate receptor ionotropic, AMPA; experiment: In vitro binding affinity towards Ionotropic glutamate receptor AMPA using [3H]AMPA as radioligand in rat cortical membrane preparations; assay type: cell membranes
[5] = tested on: Mus musculus; experiment: In vivo activity determined by Maximum electroshock induced seizures (MES) assay in mice after iv administration; assay type: functional
[6] = Mus musculus, ip, read-out: ED50

Compound | IC50 [1] [nM] | IC50 [2] [nM] | ED50 [3, 6] [mg/kg] | IC50 [4] [nM] | ED50 [3] [mg/kg] | ED50 [5] [mg/kg] | ED50 ([5]; Mus musculus, iv, read-out: ED50) [mg/kg]
CNC1(C)c2ccccc2-c2nc(O)c3nccn3c21 (configuration not stated) | 2740 | 3400 | – | – | – | – | –
Oc1nc2c(n3ccnc13)Cc1ccccc1-2 | 3000 | 760 | 62 | – | – | – | –
CC1(N)c2ccccc2-c2nc(O)c3nccn3c21 (configuration not stated) | 1400 | 2500 | 30 | – | – | – | –
Oc1nc2c(n3ccnc13)C1(CCCN1Cc1ccccc1)c1ccccc1-2 (configuration not stated) | 1300 | 10000 | – | – | – | – | –
CC(C)(C)OC(=O)N1CCCC12c1ccccc1-c1nc(O)c3nccn3c12 (configuration not stated) | 600 | > 10000 | – | – | – | – | –
CCCC1(N)c2ccccc2-c2nc(O)c3nccn3c21 (configuration not stated) | 520 | 420 | 80 | – | – | – | –
O=C1CCC2(N1)c1ccccc1-c1nc(O)c3nccn3c12 (configuration not stated) | 1700 | 1500 | – | – | – | – | –
CCCCC1(N)c2ccccc2-c2nc(O)c3nccn3c21 (configuration not stated) | 300 | 1700 | – | – | – | – | –
CNC(=O)N1CCCC12c1ccccc1-c1nc(O)c3nccn3c12 (configuration not stated) | 1700 | 4000 | – | – | – | – | –
Oc1nc2c(n3ccnc13)C1(CCNC1)c1ccccc1-2 (configuration not stated) | 640 | 200 | > 80 | – | – | – | –
O=C(O)CCC(=O)N1CCCC12c1ccccc1-c1nc(O)c3nccn3c12 (configuration not stated) | 10000 | 360 | 10 | – | – | – | –
Oc1nc2c(n3ccnc13)C1(CCCCN1)c1ccccc1-2 (configuration not stated) | 1180 | 390 | 45 | – | – | – | –
NCC(=O)N1CCCC12c1ccccc1-c1nc(O)c3nccn3c12 (configuration not stated) | 2800 | 830 | 70 | – | – | – | –
CC(=O)N1CCCC12c1ccccc1-c1nc(O)c3nccn3c12 (configuration not stated) | 560 | 610 | – | – | – | – | –
Oc1nc2c(n3ccnc13)C1(CCCN1)c1ccccc1-2 (configuration not stated) | 280 | – | 80 | 250 | – | – | –
Oc1nc2c(n3ccnc13)C1(CCNCC1)c1ccccc1-2 | 2000 | 380 | – | – | – | – | –
CC1(C)c2ccccc2-c2nc(O)c3nccn3c21 | 1000 | 4400 | – | – | – | – | –
Oc1nc2c(n3ccnc13)C1(CC1)c1ccccc1-2 | 600 | 2300 | – | – | – | – | –
O=C(Nc1ccccc1)N1CCCC12c1ccccc1-c1nc(O)c3nccn3c12 (configuration not stated) | 130 | 7100 | – | – | – | – | –
Oc1nc2c(n3ccnc13)C1(CCCC1)c1ccccc1-2 | 1400 | 1600 | – | – | – | – | –
CCN1CCCC12c1ccccc1-c1nc(O)c3nccn3c12 (configuration not stated) | 530 | 620 | 54 | – | – | – | –
O=C(NCc1ccccc1)N1CCCC12c1ccccc1-c1nc(O)c3nccn3c12 (configuration not stated) | 900 | 10000 | – | – | – | – | –
CCCN1CCCC12c1ccccc1-c1nc(O)c3nccn3c12 (configuration not stated) | 470 | 4300 | – | – | – | – | –
CN1CCCC12c1ccccc1-c1nc(O)c3nccn3c12 (single isomer, unassigned; (-)) | 1160 | 4900 | – | – | 80 | – | –
CN1CCCC12c1ccccc1-c1nc(O)c3nccn3c12 (stereo in doubt; 3e) | 420 | 200 | – | – | 31 | 10 | –
CN1CCCC12c1ccccc1-c1nc(O)c3nccn3c12 (stereo in doubt; (+)-3e) | 172 | 86 | – | – | 17 | – | 7
O=C(O)[C@@H]1C[C@H]2C[C@@H](CCc3nn[nH]n3)CC[C@H]2CN1 [TEZAMPANEL ANHYDROUS] | > 10000 | 600 | 4 | – | – | – | –
O=c1[nH]c2cc(-n3ccnc3)c([N+](=O)[O-])cc2[nH]c1=O [YM-90K] | 10400 | 350 | 12 | – | – | – | –
